Laboratory results from US10259777B2, “(E)-3-(3,4-dihydroxyphenyl)-N-(prop-2-yn-1-yl)acrylamide for treatment of neurodegenerative diseases” (THE UNIVERSITY OF HONG KONG, priority 2015, dated 2019).

Columns and labels:
[1] = Pharmacokinetic analysis of PACA after oral administration, plasma and brain, LC-MS/MS MRM; assay type: in vivo, Sprague Dawley rats
Protocol: (A) HPLC-MS/MS detection of PACA. (B) Determination of PACA in mouse plasma. (C) Determination of PACA in mouse brain tissues. PACA (30 mg/kg) was orally administered into mice. Blood samples and brain tissues were collected after different times (0, 0.5, 1, 2, 3, 6, 9, 12 or 24 h). PACA was determined by liquid chromatography-mass spectrometric multiple reaction monitoring-based strategy.
Nine male Sprague Dawley rats with a body weight of 240-280 g were purchased from Laboratory Animal Unit, HKU. The animals were housed in a qualified facility run on a 12-hour light and dark cycle. The animals were allowed unrestricted access to food and water. The protocol for the animal studies was approved by Li Ka Shing Faculty of Medicine, University of Hong Kong. The rats were administered with PACA (30 mg/kg) in 50% propanediol in saline by oral gavage whereas the control animal received vehicle only. The rats were anesthetized by isoflurane at the time points of 0, 0.5, 1, 2, 3, 6, 9, 12 or 24 h. Blood samples were collected by cardiac puncture using pre-heparinized syringes and immediately transferred into the tubes containing acetonitrile for preventing esterase metabolism. Blood samples were centrifuged at 5700 rpm for 10 minutes at 4° C. to recover plasma. Brain tissues were excised after the removal of blood vessels, blotted dry with clean paper towels, and weighed. All samples were stored at −80° C. before use. HPLC separation was performed on a Phenomenex Synergi hydro-RP C18 reversed phase column (150 mm×4.6 mm, 4 m) (Torrance, Calif., USA) under the control of Agilent HLPC 1100 system (Santa Clara, Calif., USA). Gradient was set using mobile phase: A, water with 0.05% (v/v) formic acid, B, acetonitrile with 0.05% (v/v) formic acid as follows: 0-2.5 min, 40-50% B; 2.5-5.5 min, 50-80% B; 5.5-11.5 min, 80% B; 11.5-12 min, 80-40% B, 12-15 min, 40% B. Flow rate was constant at 0.7 mL/min. The column temperature was maintained at 30° C. Sample volume for injection was 20 μL. […] Multiple-reaction monitoring (MRM) detection was used for the quantitation of all analytes.

[2] = test system: primary rat midbrain neurons; experiment: 6-OHDA-induced neurotoxicity in primary midbrain neurons, MTT and Hoechst 33342/PI staining; assay type: cell-based; conditions: 6-OHDA with or without PACA, MTT
PC12 cells = experiment: 6-OHDA-induced nitric oxide production, DAF-FM Diacetate staining; assay type: cell-based, rat; conditions: 6-OHDA with PACA 5, 10, 20 and 50 μM
Protocol: After the treatment with 6-OHDA alone or in combination with PACA at different concentrations, PC12 cells were stained with a fluorescent probe dihydroethidium (DHE) for the production of superoxide anion (A & B) and another fluorescent probe DAF-FM Diacetate for the production of nitric oxide ([…]), respectively. (A) Representative images of DHE-stained cells. 6-OHDA, 200 μM; PACA, 50 (B) PACA inhibited 6-OHDA-induced formation of superoxide ions. PC12 cells were treated with 6-OHDA alone or in combination with PACA for 6 h and subsequently stained with a probe DHE. The images were captured under a fluorescence microscope. The fluorescence was determined by ImageJ software. (C) Representative images of DAF-FM DA-stained cells. 6-OHDA, 200 μM; PACA, 50 μM. (D) PACA inhibited 6-OHDA-induced NO production. PC12 cells were treated with 6-OHDA alone or in combination with PACA for 6 h and subsequently stained with a probe DAF-FM DA. The images were captured under a fluorescence microscope. The fluorescence was determined by ImageJ software.
PC12 cells were treated with 6-OHDA alone or in combination with PACA at the concentrations of 5, 10, 20 and 50 μM. At the end of treatment, PC12 cells were then stained with a fluorescent probe dihydroethidium (DHE) for the production of superoxide anion and another fluorescent probe DAF-FM Diacetate for the production of nitric oxide, respectively.

[3] = test system: mouse model of Parkinson's disease; experiment: MPTP-induced motor dysfunctions, rotarod and pole test; assay type: in vivo, mice; conditions: PACA 15 mg/kg p.o. and MPTP 25 mg/kg i.p. daily for seven days, rotarod and pole test at day-8
Protocol: FIG. 11. In vivo Effect of PACA on MPTP-induced motor dysfunctions in mice. (A) Study design. (B) Rotarod test. Mice were placed on horizontal drums (30 mm in diameter), rotating at a progressively increasing speed, from 4 to 32 rpm over a 5-min period. The time that each animal stayed on the rod before falling was measured. (C) Pole test. Mice were placed with facing head-up on the top of the 50 cm long metal rod (1 cm diameter). Total time for each animal to reach the base of the pole was recorded. Each mouse was tested for three times. The data were presented as Mean±SEM and analyzed by one-way ANOVA with post-hoc Dunnett test. *p<0.05; **, p<0.01.
The in vivo neuroprotective effect of PACA was evaluated in a mouse model of Parkinson's disease. Nineteen mice were randomly divided into three groups: control (n=5), receiving vehicle administrations; MPTP (n=7), receiving i.p. injection of MPTP (25 mg/kg) every afternoon for seven days; MPTP+PACA (n=7), receiving p.o administration of PACA (15 mg/kg) every morning and i.p. injection of MPTP (25 mg/kg) every afternoon for seven days. At day-8, the motor functions of mice were assessed by rotarod performance test and pole test.

- time to peak concentration in blood ([1]; oral administration, 30 mg/kg): ≤ 60 min
- time to peak concentration in brain tissues ([1]; oral administration, 30 mg/kg): ≤ 60 min
Compound: C#CCNC(=O)/C=C/c1ccc(O)c(O)c1 [PACA, (E)-3-(3,4-dihydroxyphenyl)-N-(prop-2-yn-1-yl)acrylamide]
- bioavailability in plasma and brain tissues ([1]; after oral administration): rapidly bioavailable in plasma and brain tissues
- 6-OHDA neurotoxicity in primary rat midbrain neurons [2]: attenuated 6-hydroxydopamine (6-OHDA) neurotoxicity
- 6-OHDA-induced formation of NO (PC12 cells): significantly attenuated
- protection against MPTP-induced motor dysfunctions [3]: effectively protected animals against MPTP-induced motor dysfunctions
